This assay has as its target T1, Core-binding factor subunit beta (Homo sapiens, UniProt Q13951).
T1 sequence (Q13951 whole entry): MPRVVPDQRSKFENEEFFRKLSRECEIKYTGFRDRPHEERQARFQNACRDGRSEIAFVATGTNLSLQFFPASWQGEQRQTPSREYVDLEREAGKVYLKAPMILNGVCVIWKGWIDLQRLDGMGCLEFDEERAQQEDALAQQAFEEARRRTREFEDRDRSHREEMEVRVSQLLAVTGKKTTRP
The experiment in a line: FRET Assay.

Broadly, the IC50 is the midpoint of a concentration-inhibition curve. Lower therefore signals greater potency.

Description: We have developed effective assays to monitor the inhibition of CBFβ-SMMHC binding to the Runt domain (as well as for CBFβ binding to the Runt domain). […] The ratio of the emission intensities at 525 nm and 474 nm, measured after excitation at 433 nm, was used as the readout in this assay.

`CCOc1cccc2[nH]c(-c3ccccn3)nc12` [US8748618, AI-4-42]: the IC50 amounted to 4200 nM. That is a single-digit micromolar value.
In the case of `Fc1cc2[nH]c(-c3ccccn3)nc2c(F)c1F` [US8748618, AI-4-43] it was 1400 nM.
The value for `Cc1cccc2[nH]c(-c3ccccn3)nc12` [US8748618, AI-4-46] was 5300 nM.
The value for `FC(F)(F)c1cc(Cl)c2[nH]c(-c3ccccn3)nc2c1` [US8748618, AI-4-48] was 760 nM.
`Clc1cc(Cl)c2nc(-c3ccccn3)[nH]c2c1` [US8748618, AI-4-49] had an IC50 of 700 nM.
The value for `COc1cccc2[nH]c(-c3ccccn3)nc12` [US8748618, AI-4-52] was 5500 nM; that for `CC(C)Oc1ccc2[nH]c(-c3ccccn3)nc2c1` [US8748618, AI-4-70 (or) LD-2-21] was 1400 nM; that for `c1ccc(-c2nc3ccc(N4CCOCC4)cc3[nH]2)nc1` [US8748618, AI-10-3] was 1000 nM.
As to `CS(=O)(=O)c1ccc2nc(-c3ccccn3)[nH]c2c1` [US8748618, AI-10-37], the half-inhibitory concentration (IC50) amounted to 3300 nM.
The value for `FC(F)(F)Oc1ccc2[nH]c(-c3ccccn3)nc2c1` [US8748618, AI-10-47] was 1000 nM; that for `Oc1ccc2nc(-c3ccccn3)[nH]c2c1` [US8748618, AI-10-61] was 2500 nM; that for `Fc1cccnc1-c1nc2ccc(OC(F)(F)F)cc2[nH]1` [US8748618, AI-10-65] was 22000 nM.
In the case of `COCCOc1ccc(-c2nc3ccc(OC(F)(F)F)cc3[nH]2)nc1` [US8748618, AI-10-87] it was 2300 nM; in that of `c1ccc(-c2nc3cc(-n4ccnc4)ccc3[nH]2)nc1` [US8748618, AI-10-88], 3400 nM; in that of `Cc1ccc2[nH]c(-c3ccccn3)nc2c1C` [US8748618, LD-1-23], 4300 nM.
The value for `CCOc1ccc2[nH]c(-c3ccccn3)nc2c1` [US8748618, LD-1-29 (or) AI-10-54] was 1500 nM; that for `Fc1ccc2[nH]c(-c3ccccn3)nc2c1` [US8748618, LD-1-31] was 2500 nM.
`Fc1cc2nc(-c3ccccn3)[nH]c2cc1F` [US8748618, LD-1-33] displayed an IC50 of 2500 nM.
The value for `Cc1cc2nc(-c3ccccn3)[nH]c2cc1C` [US8748618, LD-1-37] was 2000 nM; that for `Cc1ccc2[nH]c(-c3ccccn3)nc2c1` [US8748618, LD-2-11] was 2900 nM; that for `FC(F)(F)c1ccc2[nH]c(-c3ccccn3)nc2c1` [US8748618, LD-2-23] was 1100 nM.
The value for `Clc1ccc2nc(-c3ccccn3)[nH]c2c1` [US8748618, LD-2-79] was 2300 nM.

These data come from BindingDB's records for patent US8748618 (University of Virginia Patent Foundation, 2014).
